From paper PMC12135508 (Antimicrobial Agents and Chemotherapy, 2025)
Read-outs that look alike come from different tables or passages of the source. Marks after values point to notes of the source that are not given here.

Columns and labels:
E. coli TOP10F´ = experiment: microbe, parasite or virus in culture; type: cell-based; conditions: Escherichia coli, read-out: Minimum inhibitory concentration
Text: (§1) The KPC-2 gene was recovered from a clinical Klebsiella pneumoniae strain previously characterized in our laboratory ([46]). E. coli TOP10 F´ (Invitrogen, USA) and E. coli BL21(DE3) (Novagen, Germany) were used as hosts for transformation experiments, to obtain recombinant clones for antimicrobial susceptibility and overexpression assays, respectively. Escherichia coli ATCC 25922 and ATCC 35218 were used as control strains for antimicrobial susceptibility assays.
(§2) Minimum inhibitory concentrations (MICs) of different β-lactams and combinations with β-lactamase inhibitors were determined by an adaptation of the broth microdilution method by the CLSI ([49]), as follows. As we used E. coli recombinant clones harboring pMBLe/bla constructions, where protein production is regulated by isopropyl-β-D-thiogalactoside (IPTG) induction ([47]), antimicrobial susceptibility assays were performed using Mueller Hinton broth supplemented with 50 µM IPTG. Also, as control strains we included the E. coli Top10F’ (used as recipient strain in transformation assays), and the same strain transformed with the empty vector pMBLe, to have a comparison under the same isogenic background.

[1] = system: E. coli TOP10F´ pMBLe/KPC-2; experiment: MIC by broth microdilution, KPC-2-producing recombinant clone; type: cell-based; conditions: Escherichia coli, 50 µM IPTG, combinations given as β-lactam/inhibitor, read-out: Minimum inhibitory concentration
Protocol: (§3) Ligation mixtures were transformed in chemically competent E. coli TOP10F´ cells, and recombinant clones were selected in Lysogeny broth (LB) agar supplemented with 20 µg/mL gentamicin or 30 µg/mL kanamycin, depending on whether the constructions were obtained in pMBLe or pET24a(+) vectors, respectively. Recombinant plasmids of the selected clones were extracted and sequenced to verify the identity of bla genes and their proper insertion.
(§4) Minimum inhibitory concentrations (MICs) of different β-lactams and combinations with β-lactamase inhibitors were determined by an adaptation of the broth microdilution method by the CLSI ([49]), as follows. As we used E. coli recombinant clones harboring pMBLe/bla constructions, where protein production is regulated by isopropyl-β-D-thiogalactoside (IPTG) induction ([47]), antimicrobial susceptibility assays were performed using Mueller Hinton broth supplemented with 50 µM IPTG.

[2] = system: E. coli TOP10F´ pMBLe/KPC-14; experiment: MIC by broth microdilution, KPC-14-producing recombinant clone; type: cell-based, Escherichia coli; conditions: for MIC: Escherichia coli, E. coli TOP10F´ pMBLe/KPC-14, 50 µM IPTG, combinations given as β-lactam/inhibitor, read-out: Minimum inhibitory concentration; for MIC interpretation in KPC-14 recombinant clone: recombinant clone harboring KPC-14
Protocol: as §3, §4

KPC-14 [3] = molecular target: T1, KPC-14 (Klebsiella pneumoniae, UniProt Q9F663, DEL241-242); experiment: Steady-state kinetics of β-lactam hydrolysis by KPC-14; type: biochemical; conditions: for kcat / Km: KPC-14
T1 construct: amplify the entire blaKPC-14 gene with the cloning primers; made in house; host or cells: E. coli BL21(DE3), pET24a(+)
T1 sequence (Q9F663 25-240, added parts left off, stated change not applied): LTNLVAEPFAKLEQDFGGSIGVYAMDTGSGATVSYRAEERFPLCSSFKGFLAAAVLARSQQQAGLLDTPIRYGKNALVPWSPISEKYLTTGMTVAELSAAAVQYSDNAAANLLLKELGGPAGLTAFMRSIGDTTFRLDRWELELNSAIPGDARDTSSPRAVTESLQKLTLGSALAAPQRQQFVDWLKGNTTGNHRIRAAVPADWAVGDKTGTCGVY
Text: (Eq. 1) v=(Vmax×[S]) / (Km+[S])
(Eq. 2) KI=KI obs / (1+[NCF]/KM(NCF))

KPC-2 [4] = conditions: ceftazidime as reporter substrate, ref 20 Oueslati et al.; cited from earlier work
KPC-14 [5] = system: KPC-14; set-up: method as in earlier work; conditions: ref 20 Oueslati et al., cited from earlier work
E. coli TOP10F´/pMBLe = experiment: MIC by broth microdilution, empty-vector control clone; type: cell-based; conditions: Escherichia coli; E. coli TOP10F´ with empty vector pMBLe; 50 µM IPTG; combinations given as β-lactam/inhibitor; read-out: Minimum inhibitory concentration
Text: as §1, §2

KPC-2 [6] = molecular target: T2, KPC-2 (Klebsiella pneumoniae, UniProt Q9F663); experiment: Clavulanic acid inhibition and hydrolysis, KPC-2; type: biochemical
T2 construct: The complete blaKPC-2 gene was amplified from whole DNA; made in house; host or cells: E. coli BL21(DE3), pET24a(+)
T2 sequence (Q9F663 25-293 limits assumed): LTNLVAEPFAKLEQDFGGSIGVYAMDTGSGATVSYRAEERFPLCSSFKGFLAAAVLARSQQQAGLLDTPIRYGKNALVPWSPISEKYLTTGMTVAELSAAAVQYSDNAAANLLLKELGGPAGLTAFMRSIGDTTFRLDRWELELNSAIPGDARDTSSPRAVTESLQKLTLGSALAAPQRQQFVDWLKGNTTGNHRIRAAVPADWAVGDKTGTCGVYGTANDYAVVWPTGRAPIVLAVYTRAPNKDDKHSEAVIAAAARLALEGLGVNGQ
Protocol: (§5) To assess if KPC-14 shares the same behavior, KI app and kinact values for clavulanic acid of both enzymes were determined as previously reported ([32], [33]). The initial velocity (V0) of clavulanic acid hydrolysis was monitored at 235 nm ([32]), mixing an inhibitor concentration five times the KM determined and 100 nM of enzyme. V0 obtained under this condition was considered the Vmax and was used to determine the kcat for clavulanic acid.

KPC-14 [7] = molecular target: T1, KPC-14; experiment: Clavulanic acid inhibition and hydrolysis, KPC-14; type: biochemical
Protocol: as §5

[8] = system: CC(=O)OCC1=C(C(=O)O)N2C(=O)[C@@H](NC(=O)Cc3cccs3)[C@H]2SC1; experiment: purified protein, by the assay type; conditions: other: KPC-2, 50 mM sodium phosphate pH 7.0, room temperature
[9] = system: CC(C)(O/N=C(\C(=O)N[C@@H]1C(=O)N2C(C(=O)[O-])=C(C[n+]3ccccc3)CS[C@H]12)c1csc(N)n1)C(=O)O; experiment: purified protein, by the assay type; conditions: other: KPC-2; determined with nitrocefin as reporter in competitive assays; pH 7.0
[10] = system: CCN1CCN(C(=O)N[C@@H](C(=O)N[C@@H]2C(=O)N3[C@@H]2SC(C)(C)[C@@H]3C(=O)O)c2ccccc2)C(=O)C1=O; experiment: purified protein, by the assay type; conditions: other: KPC-2, 50 mM sodium phosphate pH 7.0, room temperature
[11] = system: CO/N=C(\C(=O)N[C@@H]1C(=O)N2C(C(=O)O)=C(COC(N)=O)CS[C@H]12)c1ccco1; experiment: purified protein, by the assay type; conditions: other: KPC-2, 50 mM sodium phosphate pH 7.0, room temperature
[12] = system: CO/N=C(\C(=O)N[C@@H]1C(=O)N2C(C(=O)O)=C(CSc3nc(=O)c(=O)[nH]n3C)CS[C@H]12)c1csc(N)n1; experiment: purified protein, by the assay type; conditions: other: KPC-2; determined with nitrocefin as reporter in competitive assays; pH 7.0
[13] = system: CO/N=C(\C(=O)N[C@@H]1C(=O)N2C(C(=O)[O-])=C(C[N+]3(C)CCCC3)CS[C@H]12)c1csc(N)n1; experiment: purified protein, by the assay type; conditions: other: KPC-2, 50 mM sodium phosphate pH 7.0, room temperature
[14] = system: C[C@@H](O)[C@H]1C(=O)N2C(C(=O)O)=C(SCCN=CN)C[C@H]12; experiment: purified protein, by the assay type; conditions: other: KPC-2, 50 mM sodium phosphate pH 7.0, room temperature
[15] = system: C[C@@H](O)[C@H]1C(=O)N2C(C(=O)O)=C(S[C@@H]3CN[C@H](C(=O)N(C)C)C3)[C@H](C)[C@H]12; experiment: purified protein, by the assay type; conditions: other: KPC-2, 50 mM sodium phosphate pH 7.0, room temperature
[16] = E. coli TOP10F´ recipient strain, Mueller Hinton broth + 50 µM IPTG, combinations given as β-lactam/inhibitor
[17] = 50 mM sodium phosphate pH 7.0, room temperature
[18] = determined with nitrocefin as reporter in competitive assays

CC1(C)S[C@@H]2[C@H](NC(=O)[C@H](N)c3ccccc3)C(=O)N2[C@H]1C(=O)O [Ampicillin]
MIC (E. coli TOP10F´; [16]): 2 µg/mL
MIC [1]: 1020 µg/mL
MIC [2]: 64 µg/mL
kcat/KM fold lower, KPC-14 vs KPC-2 (KPC-14 [3]): 24 fold
kcat (KPC-14 [3]): 0.83 ± 0.02 s⁻¹
Km (KPC-14 [3]; [17]): 95 ± 10 µM

NC(=O)[C@@H]1CC[C@@H]2CN1C(=O)N2OS(=O)(=O)O [Avibactam, avibactam]
IC50 (KPC-14 [5]; KPC-14, ceftazidime as reporter substrate): 107 nM

C[C@H]1[C@H](NC(=O)/C(=N\OC(C)(C)C(=O)O)c2csc(N)n2)C(=O)N1S(=O)(=O)O [Aztreonam]
MIC (E. coli TOP10F´; [16]): ≤ 0.25 µg/mL
MIC (E. coli TOP10F´/pMBLe): ≤ 0.25 µg/mL

CO/N=C(\C(=O)N[C@@H]1C(=O)N2C(C(=O)[O-])=C(C[N+]3(C)CCCC3)CS[C@H]12)c1csc(N)n1 [Cefepime]
MIC (E. coli TOP10F´; [16]): ≤ 0.25 µg/mL
MIC (E. coli TOP10F´/pMBLe): ≤ 0.25 µg/mL
MIC [1]: 1 µg/mL
MIC [2]: 1 µg/mL
hydrolytic efficiency (kcat/KM) fold increase, KPC-14 vs KPC-2 (KPC-14 [3]): 3 fold
kcat (KPC-14 [3]): 0.61 ± 0.03 s⁻¹
Km (KPC-14 [3]; [17]): 7 ± 1 µM

CC(C)(O/N=C(\C(=O)N[C@@H]1C(=O)N2C(C(=O)[O-])=C(C[n+]3ccccc3)CS[C@H]12)c1csc(N)n1)C(=O)O [Ceftazidime]
MIC (E. coli TOP10F´; [16]): 0.12 µg/mL
MIC [1]: 2 µg/mL
MIC [2]: 32 µg/mL

CO/N=C(\C(=O)N[C@@H]1C(=O)N2C(C(=O)O)=C(CSc3nc(=O)c(=O)[nH]n3C)CS[C@H]12)c1csc(N)n1 [Ceftriaxone]
MIC (E. coli TOP10F´): ≤ 0.25 µg/mL
MIC (E. coli TOP10F´/pMBLe): ≤ 0.25 µg/mL

CC(=O)OCC1=C(C(=O)O)N2C(=O)[C@@H](NC(=O)Cc3cccs3)[C@H]2SC1 [Cephalothin]
MIC (E. coli TOP10F´; [16]): 8 µg/mL
MIC [1]: 256 µg/mL
MIC [2]: 64 µg/mL

C[C@@H](O)[C@H]1C(=O)N2C(C(=O)O)=C(SCCN=CN)C[C@H]12 [Imipenem]
MIC (E. coli TOP10F´; [16]): 0.12 µg/mL
MIC (E. coli TOP10F´/pMBLe): 0.12 µg/mL
MIC [1]: 2 µg/mL
MIC [2]: 0.25 µg/mL
MIC interpretation in KPC-14 recombinant clone [2]: within the susceptibility range
kcat/KM fold lower, KPC-14 vs KPC-2 (KPC-14 [3]): 11 fold
kcat (KPC-14 [3]): (5.93 ± 0.02) × 10^−3 s^−1
Km (KPC-14 [3]; [18]): 0.55 ± 0.02 µM
turnover (kcat) fold decrease, KPC-14 vs KPC-2 (KPC-14 [3]; this work): 2,500 fold
turnover (kcat) fold reduction, KPC-14 (KPC-14 [5]): 1,000 fold

C[C@@H](O)[C@H]1C(=O)N2C(C(=O)O)=C(S[C@@H]3CN[C@H](C(=O)N(C)C)C3)[C@H](C)[C@H]12 [Meropenem]
MIC (E. coli TOP10F´; [16]): ≤ 0.03 µg/mL
MIC (E. coli TOP10F´/pMBLe): ≤ 0.03 µg/mL
MIC [1]: 1 µg/mL
MIC [2]: ≤ 0.03 µg/mL
MIC interpretation in KPC-14 recombinant clone [2]: within the susceptibility range
kcat/KM fold lower, KPC-14 vs KPC-2 (KPC-14 [3]): 1,000 fold
kcat (KPC-14 [3]): (8.8000 ± 0.0001) × 10^−4 s^−1
Km (KPC-14 [3]; [18]): 10 ± 1 µM

O=C(O)[C@H]1/C(=C/CO)O[C@@H]2CC(=O)N21 [clavulanic acid]
inhibition of nitrocefin hydrolysis at 300 µM inhibitor (KPC-2 [6]; 300 µM clavulanic acid): residual hydrolytic activity
kcat (turnover of inhibitor hydrolysis) (KPC-2 [6]; 235 nm, inhibitor five times above KM, 100 nM enzyme): 11.60 ± 0.01 s⁻¹
KM (Ki app expressed as KM) (KPC-2 [6]; nitrocefin competition): 80000 ± 8000 nM
hydrolysis of inhibitor monitored at 235 nm (KPC-14 [7]; inhibitor five times above Ki app, 100 nM enzyme): No hydrolytic activity was detected
Ki (KPC-14 [7]; nitrocefin competition, read-out: Ki app): 8500 ± 1100 nM
concentration sufficient for complete inhibition of enzyme activity (KPC-14 [7]; nitrocefin hydrolysis time courses): 16 µM

KPC-2 (Klebsiella pneumoniae)
Km [8]: 159 ± 15 µM
kcat [8]: 56 ± 2 s⁻¹
kcat/Km [8]: 360000 ± 40000 M⁻¹ s⁻¹
Km [9]: 1,319 ± 145^a µM
kcat [9]: 0.9 ± 0.1 s⁻¹
kcat/Km [9]: 830 ± 40 M⁻¹ s⁻¹
Km [10]: 97 ± 12 µM
kcat [10]: 29 ± 1 s⁻¹
kcat/Km [10]: 300000 ± 40000 M⁻¹ s⁻¹
Km [11]: 319 ± 48 µM
kcat [11]: 85 ± 8 s⁻¹
kcat/Km [11]: 270000 ± 50000 M⁻¹ s⁻¹
Km [12]: 267 ± 29^a µM
kcat [12]: 52 ± 7 s⁻¹
kcat/Km [12]: 194000 ± 6000 M⁻¹ s⁻¹
Km [13]: 59 ± 5 µM
kcat [13]: 1.31 ± 0.04 s⁻¹
Km [14]: 120 ± 9 µM
kcat [14]: 15 ± 0.4 s⁻¹
kcat/Km [14]: 120000 ± 10000 M⁻¹ s⁻¹
Km [15]: 31 ± 2 µM
kcat [15]: 2.85 ± 0.06 s⁻¹
kcat/Km [15]: 91000 ± 6000 M⁻¹ s⁻¹
